Reference: patent US20030032674A1, “Use of unsaturated fatty acids to treat severe inflammatory diseases” (priority 2001, published 2003)

Columns and labels:
IL-1α expression = experiment: IL-1α immunoblot in RAW 264.7 cells; type: cell-based, murine; details: lauric acid 1, 10, 50, 100 μM with BSA, 11 h
Description: Cell culture—RAW 264.7 cells (a murine macrophage-like cell line, ATCC TIB-71), 293T cells (a human embryonic kidney cell line, provided by Sam Lee, Beth Israel Hospital. Boston, Mass.), and HT-29 cells (a human colon adenocarcinoma cell line, ATCC HTB-38) were cultured in Dulbecco's modified Eagle's medium (DMEM) containing 10% (v/v) heat-inactivated fetal bovine serum (FBS, Intergen) and 100 units/ml Penicillin and […] Streptomycin (GIBCO-BRL) at 37° C. in a 5% CO2/air environment. Cells (2×10^6) were plated in 60-mm dishes and cultured for an additional 18 hours to allow the number of cells to approximately double. Cells were maintained in serum-poor (0.25% FBS) medium for another 18 hours prior to the treatment with indicated reagents.
Preparation of fatty acids-albumin complexes—All fatty acids were solubilized in ethanol, and then combined with fatty acid-free and low-endotoxin BSA at a molar ratio of 10:1 (fatty acid: albumin) in serum-poor medium (0.25% FBS). […]
After 11 h, cell lysates were analyzed by COX-2, iNOS, IL-1α, or GAPDH immunoblot using a Western blot analysis.
RAW 264.7 cells were pretested with various concentrations (5, 10, 20, and 50 μM) of docosahexaenoic acid (C22:6n-3) for 3 hours, and then stimulated with LPS (100 ng/ml) for 8 hours and analyzed by COX-2, iNOS, IL-1 a or GAPDH immunoblot.

[1] = tested on: constitutively active human TLR4 (CD4-TLR4); experiment: NFκB reporter in 293T cells transfected with constitutively active TLR4; type: cell-based
Description: Plasmids and DNA Constructs—All plasmids and constructs were obtained or made as reported in either S. H. Rhee and D. Hwang, “Murine TOLL-like receptor 4 confers lipopolysaccaride responsiveness as determined by activation of NFκB and expression of the inducible cyclooxygenase,” Journal of Biological Chemistry, vol. 275, pp. 34035-34040 (2000); and J. Y. Lee et al., “Saturated fatty acids, but not unsaturated fatty acids, induce the expression of cyclooxygenase-2 mediated through TOLL-like receptor 4,” Journal of Biological Chemistry, vol. 276, pp. 16683-16689 (2001). Briefly, the luciferase reporter plasmids (pGL2) containing the promoter region of the murine COX-2 gene (−3201/+93 or −1017/+93) were provided by David Dewitt (Michigan State University, East Lansing, Mich.). To prepare the wild-type COX-2 promoter fragment, polymerase chain reaction (PCR) was performed with the primers named Kpn-COX2-For and Hind-COX2-Rev using the murine COX-2 (−1017/+93) luciferase reporter plasmid as a template. To prepare the mutant COX-2 promoter fragment containing mutated NFκB site, Kpn-COX2-Fmut and Hind-COX2-Rev were used as primers. Each PCR fragment was inserted into the KpnI and HindIII sites of pGL2 to generate the wild-type or mutant COX-2 (−410/+86) luciferase reporter constructs, respectively. Sequences for wild-type NFκB site and the primers were used as reported elsewhere. […]

## CCCCCCCCCCCC(=O)O [lauric acid]
IL-1α expression
  IL-1α expression induced by fatty acid (immunoblot): induced
[1]
  effect on CD4-TLR4-induced NFκB activation: potentiated
